In US4792559A, “1,2,3,4-tetrahydroquinoline substituted 5-aminopentanenitrile compounds and their use as calcium modulators” (ADIR et Compagnie, priority 1985, dated 1988):
Read-outs that look alike come from different tables or passages of the source.

Assays:
aorta [1] = assay: Isolated rat aorta rings stimulated with potassium-rich solution (K+ 100 mM), relaxation; parameters: species or system rat (male Wistar); details: Rattus norvegicus, aorta rings stimulated with K+ 100 mM; read-out: AORTA St:K+ IC50
Description: (§1) a. Study of isolated organs removed from rats
(§2) Male Wistar rats weighing from 350 to 400 g are used.
(§3) After rapid sacrifice of the animal, the following are removed:
(§4) the aorta, dissected and prepared in rings; after an equilibration period of 1 hour in the reference physiological solution (1), the prepared specimens are stimulated with a solution rich in potassium (K^+) (100 mM) or with noradrenaline (NA) (10^-6 M).
(§5) The substances to be tested are then added (test sample 0.2 ml) in cumulative doses every 15 minutes.
(§6) The relaxation values obtained permit an activity-dose curve to be constructed, enabling the IC50 to be calculated in M.
(§7) The characteristics of the solutions used are as follows: […]

aorta [2] = assay: Isolated rat aorta rings stimulated with noradrenaline (10^-6 M), relaxation; parameters: species or system rat (male Wistar); details: read-out: AORTA St:NA IC50
Description: as §1, §2, §3, §4, §5, §6, §7

right auricle (RA) = assay: Isolated right auricle, chronotropic effect; parameters: species or system rat (male Wistar); details: Rattus norvegicus
Description: as §1, §2
(§8) the right auricle (RA) and left auricle (LA) RA beats spontaneously.
(§9) Stabilisation is obtained in physiological liquid (2) after 30 minutes.
(§10) The substances to be tested are then added (test sample 0.2 ml) in cumulative doses every 15 minutes. The effects on RA are chronotropic. The effects on LA are inotropic. The construction of the activity-dose curves enables the IC50, expressed in M, to be measured.

left auricle (LA) = assay: Isolated left auricle, inotropic effect; parameters: species or system rat (male Wistar); details: Rattus norvegicus; stimulated electrically at 3 Hz
Description: as §1, §2, §8
LA is stimulated electrically at a rate of 3 Hz (180 beats per min.) (amplitude of the stimulations: threshold×2).
as §9, §10

left auricle / aorta = assay: Evaluation of myocardium/vessel selectivity (IC50 LA/IC50 aorta); parameters: species or system rat (male Wistar); details: IC50 LA/IC50 aorta; high values indicate vascular selectivity
Description: c. Evaluation of myocardium/vessel selectivity
The IC50 LA/IC50 aorta ratio leads to a first evaluation; the high values indicate vascular selectivity.

calmodulin = calmodulin (Homo sapiens, UniProt P0DP23); assay: Calcium calmodulin binding, fluorescence of dansylated calmodulin; details: for Kd/IC50 AORTA K+: close to 1 indicates vascular inhibition through calmodulin; for Kd: extrapolated to 0 calmodulin, read-out: Kd (cam)
Description: b. Fixation on calcium calmodulin binding
The orientations of synthesis which may lead to possibilities of inhibiting calmodulin are evaluated by measuring the fluorescence of dansylated calmodulin.
The substances to be tested are added to the experimental vessel (2 ml). The increase in fluorescence of dansylated calmodulin enables effect-dose curves to be constructed; measuring the EC50 gives an apparent Kd value. After extrapolation of the apparent Kd values to 0 calmodulin, the experiments carried out for different calcium-calmodulin concentration values enable the characteristic Kd values of the tested substances to be determined (Method proposed by Johnson and Wittenauer, 1983, Biochem., 211, 473-479).
d. Evaluation of the possibility of inhibition at the calmodulin level

dogs = assay: Haemodynamic study in anaesthetised dogs; type: in vivo, mongrel dogs; details: for dP/dt: Left ventricular pressure derivative, variation: measured at 20 minutes
Description: A haemodynamic study was carried out on mongrel dogs weighing from 25 to 30 kg, which were anaesthetised with sodium pentobarbital in a dose of 30 mg/kg i.v., intubated and ventilated, and subjected to a thoracotomy at the 5th left intercostal space.
The left and aortal ventricular pressures are measured by means of MILLAR probes introduced by the femoral artery route. The cardiac frequency is measured by Biotach Gould ECG (derivation D2); the gases of the aortal blood and of the coronary sinus are analysed by an ABL3 radiometer.
The products tested were injected by the femoral vein route.

[3] = system: aorta artery of the rat without endothelium; assay: Contraction of rat aorta without endothelium by ionophore calcium A 23187; details: A 23187 at 5.10^-6 M
[4] = spontaneously beating, read-out: RIGHT AURICLE (RA) (CHRONOTROPIC EFFECT) IC50

## COc1ccc(C(C#N)(CCCN(C)CCc2ccc(OC)c3c2CCCN3C(C)=O)Sc2ccccc2)cc1OC (centres unmarked) [Example 7, 2-(3,4-dimethoxyphenyl)-2-phenylthio-5-{N-[(1-acetyl-8-methoxy-1,2,3,4-tetrahydroquinol-5-yl)ethyl]-N-methyl-amino}-pentanenitrile]
Aorta [1]
  IC50: 360 nM
Aorta [2]
  IC50: 3000 nM
Right auricle (RA); [4]
  IC50: 2900 nM
Left auricle (LA)
  IC50: 5500 nM
Left auricle / aorta
  LA/AORTA SELECTIVITY (St:K+): 15
calmodulin
  Kd/IC50 AORTA K+: 0.66
  Kd: 240 nM
calmodulin; in vitro
  mechanism indicated by the pharmacological effects: intracellular inhibitory mechanisms and, especially, a calcium-calmodulin inhibition mechanism
dogs; IV 300 μg/kg
  AAP: Average arterial pressure, maximum variation: -16%
  ACF: Average coronary flow, maximum variation: +77%
  CF: Cardiac frequency, maximum variation: -7%
  I/C: Myocardial O2 intake/consumption ratio, maximum variation: +52%
  PO2 SC: PO2 coronary blood sinus, maximum variation: +36%
  PR: PR space of the ECG, maximum variation: +15%
  dP/dt: Left ventricular pressure derivative, variation: 0%
dogs; IV 1000 μg/kg
  AAP: Average arterial pressure, maximum variation: -36%
  ACF: Average coronary flow, maximum variation: +132%
  CF: Cardiac frequency, maximum variation: -11%
  I/C: Myocardial O2 intake/consumption ratio, maximum variation: +107%
  PO2 SC: PO2 coronary blood sinus, maximum variation: +49%
  PR: PR space of the ECG, maximum variation: +37%
  dP/dt: Left ventricular pressure derivative, variation: -3%
dogs; i.v., compared with Verapamil
  negative inotropic effect / cardiotropic effect: absence of a negative inotropic effect
  percentage increase in the PR duration: reduction in the percentage increase in the PR duration

## COc1ccc(CCN(C)CCCC(C#N)(c2ccc(OC)c(OC)c2)C(C)C)cc1OC (centres unmarked) [Verapamil, verapamil, reference compound]
Aorta [1]
  IC50: 800 nM
Aorta [2]
  IC50: 14000 nM
Right auricle (RA); read-out: RIGHT AURICLE (RA) (CH[…]) IC50
  IC50: 2000 nM
Left auricle (LA)
  IC50: 2000 nM
[3]
  activity on contraction by ionophore calcium A 23187: inactive
dogs; IV 30 μg/kg
  AAP: Average arterial pressure, maximum variation: -5%
  ACF: Average coronary flow, maximum variation: +32%
  CF: Cardiac frequency, maximum variation: -4%
  PO2 SC: PO2 coronary blood sinus, maximum variation: +18%
  PR: PR space of the ECG, maximum variation: +6%
dogs; IV 100 μg/kg
  AAP: Average arterial pressure, maximum variation: -16%
  ACF: Average coronary flow, maximum variation: +87%
  CF: Cardiac frequency, maximum variation: -9%
  PO2 SC: PO2 coronary blood sinus, maximum variation: +42%
  PR: PR space of the ECG, maximum variation: +14%
  dP/dt: Left ventricular pressure derivative, variation: -5%
dogs; IV 300 μg/kg
  AAP: Average arterial pressure, maximum variation: -21%
  ACF: Average coronary flow, maximum variation: +99%
  CF: Cardiac frequency, maximum variation: -8%
  PO2 SC: PO2 coronary blood sinus, maximum variation: +71%
  PR: PR space of the ECG, maximum variation: +40%
  dP/dt: Left ventricular pressure derivative, variation: -13%

## COc1cccc(C(C#N)(CCCN(C)CCc2ccc(OC)c3c2CCCN3C(C)=O)C(C)C)c1 (centres unmarked) [Example 13, 2-(3-methoxyphenyl)-2-isopropyl-5-{N-[(1-acetyl-8-methoxy-1,2,3,4-tetrahydroquinol-5-yl)ethyl]-N-methyl-amino}-pentanenitrile]
Aorta [1]
  IC50: 250 nM
Aorta [2]
  IC50: 30000 nM
Right auricle (RA); [4]
  IC50: 1000 nM
Left auricle (LA)
  IC50: 5200 nM
Left auricle / aorta
  LA/AORTA SELECTIVITY (St:K+): 20
calmodulin
  Kd/IC50 AORTA K+: 97
  Kd: 34000 nM
dogs; IV 100 μg/kg
  AAP: Average arterial pressure, maximum variation: -10%
  ACF: Average coronary flow, maximum variation: +42%
  CF: Cardiac frequency, maximum variation: -11%
  I/C: Myocardial O2 intake/consumption ratio, maximum variation: +45%
  PO2 SC: PO2 coronary blood sinus, maximum variation: +40%
  PR: PR space of the ECG, maximum variation: +10%
  dP/dt: Left ventricular pressure derivative, variation: 0%
dogs; IV 300 μg/kg
  AAP: Average arterial pressure, maximum variation: -23%
  CF: Cardiac frequency, maximum variation: -15%
  I/C: Myocardial O2 intake/consumption ratio, maximum variation: +99%
  PO2 SC: PO2 coronary blood sinus, maximum variation: +59%
  PR: PR space of the ECG, maximum variation: +32%
  dP/dt: Left ventricular pressure derivative, variation: -6%

## COc1ccc(C(C#N)(CCCN(C)CCc2ccc(OC)c3c2CCCN3C(C)=O)C(C)C)cc1OC (centres unmarked) [Example 4, 2-(3,4-dimethoxyphenyl)-2-isopropyl-5-{N-[(1-acetyl-8-methoxy-1,2,3,4-tetrahydroquinol-5-yl)ethyl]-N-methyl-amino}-pentanenitrile]
Aorta [1]
  IC50: 600 nM
Aorta [2]
  IC50: 13000 nM
Right auricle (RA); [4]
  IC50: 1500 nM
Left auricle (LA)
  IC50: 8000 nM
Left auricle / aorta
  LA/AORTA SELECTIVITY (St:K+): 13
calmodulin
  Kd/IC50 AORTA K+: 10.8
  Kd: 6500 nM
dogs; IV 300 μg/kg
  AAP: Average arterial pressure, maximum variation: -14%
  ACF: Average coronary flow, maximum variation: +84%
  CF: Cardiac frequency, maximum variation: -17%
  I/C: Myocardial O2 intake/consumption ratio, maximum variation: +83%
  PO2 SC: PO2 coronary blood sinus, maximum variation: +47%
  PR: PR space of the ECG, maximum variation: +27%
  dP/dt: Left ventricular pressure derivative, variation: -2%
